This passage reports IC50 and EC50 results from patent US20230147257A1 (DONG-A ST CO., LTD., priority 2020, published 2023).

The target of test [1] is T1, AhR (Homo sapiens, UniProt P35869).
T1 construct: host or cells: HepG2
T1 sequence (P35869 11-848): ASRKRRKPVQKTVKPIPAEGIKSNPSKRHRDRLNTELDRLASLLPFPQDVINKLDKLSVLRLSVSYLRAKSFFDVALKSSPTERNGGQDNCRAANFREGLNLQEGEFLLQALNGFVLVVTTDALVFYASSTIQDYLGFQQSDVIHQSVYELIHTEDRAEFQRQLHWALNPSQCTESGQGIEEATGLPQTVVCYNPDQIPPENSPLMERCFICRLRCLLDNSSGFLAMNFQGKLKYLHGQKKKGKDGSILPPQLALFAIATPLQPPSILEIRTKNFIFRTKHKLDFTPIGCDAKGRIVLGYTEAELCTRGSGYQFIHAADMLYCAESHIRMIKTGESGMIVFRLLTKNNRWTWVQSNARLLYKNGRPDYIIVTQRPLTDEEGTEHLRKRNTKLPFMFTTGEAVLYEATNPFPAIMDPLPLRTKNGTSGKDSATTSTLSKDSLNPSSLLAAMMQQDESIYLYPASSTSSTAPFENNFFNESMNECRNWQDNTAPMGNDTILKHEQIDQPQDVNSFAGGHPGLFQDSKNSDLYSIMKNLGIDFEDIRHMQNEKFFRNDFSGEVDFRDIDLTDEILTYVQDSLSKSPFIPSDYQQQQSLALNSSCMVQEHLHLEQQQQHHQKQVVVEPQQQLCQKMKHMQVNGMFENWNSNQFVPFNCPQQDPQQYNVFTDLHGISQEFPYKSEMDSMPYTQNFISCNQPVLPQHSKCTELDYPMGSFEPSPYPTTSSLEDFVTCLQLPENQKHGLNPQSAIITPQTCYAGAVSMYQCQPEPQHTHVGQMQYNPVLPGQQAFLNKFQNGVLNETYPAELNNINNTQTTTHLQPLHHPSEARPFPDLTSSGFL
Description: In vitro assay 1: XRE-luciferase reporter assay, antagonism in human cell line (HepG2). It counts as cell-based. As to conditions: HepG2 XRE-luciferase, 6 hours, read-out: Assay 1: AhR-Luc Human Antagonism (IC50). The source says:
(§1) In Vitro XRE-Luciferase Reporter Assay (In Vitro Assay 1, 2, 3)
(§2) AhR activation leads the induction of target gene expression such as CYP1A1 and CYP1B1 by AhR binding to AhR-responsive DNA elements also known as xenobiotics responsive elements (XRE). The assay for measuring AhR activity herein is the luciferase assay using cell lines transfected with luciferase reporter plasmid containing XREs at the upstream of the reporter gene. Cells transfected with XRE-luciferase reporter (XRE-Luc) plasmid drive luciferase activity reflecting activation and inhibition of AhR in the cells. In addition to transfection with XRE-reporter vector, cells were co-transfected with Nano-luciferase reporter gene construct (Nano-Luc) containing constitutively active promoter as internal control. Kynurenine (an endogenous AhR agonist) was used to stimulate cells to test antagonistic properties of the compounds. The half-maximal inhibitory concentration (IC50) or half-maximal effective concentration (EC50) value was calculated using nonlinear regression (four parameters) with Prism8.0 software (GraphPad).
In Vitro Assay 1: Antagonism in Human Cell Line
HepG2 (human hepatoma cell line) cell line with a XRE-luciferase reporter either transiently or stably (Invivogen) were plated in complete medium and incubated at 37° C. in a CO2 incubator. After 24 hours, cells were treated with kynurenine (50* or 200 μM) alone (negative control) or with test compounds for 6 hours. Luciferase activity was measured with a commercial kit such as the Promega Luciferase kit or other reagents for measuring luciferase activity. Relative luciferase activity (Firefly/Nano-Luc) was used to calculate IC50 values. The relative luciferase activity was further normalized with kynurenine alone group as the maximum control and the vehicle group as the minimum control. (IC50 values are grouped as A, B, C and D, whereby A: IC50<0.01 μM; B: 0.01<IC50<0.1 μM; C: 0.1<IC50<1.0 μM; D: IC50>1.0 μM)
A general note: A reporter such as luciferase makes a cellular process visible.

Test [2] has as its target T1, AhR. Description: In vitro assay 3: XRE-luciferase reporter assay, agonism in human cell line (HepG2). It counts as cell-based. To be noted: HepG2 XRE-Luc, tryptophan free medium, test compound alone, 6 hours.
Text: as §1, §2
In Vitro Assay 3: Agonism in Human Cell Line
HepG2 (human hepatoma cell line) cells co-transfected with XRE-Luc and Nano-Luc plasmids were plated in tryptophan free medium containing 1% of dialyzed fetal bovine serum and incubated overnight at 37° C. in a CO2 incubator. After 24 hours, cells were treated for 6 hours with test compounds or not. Firefly luciferase and Nano-luciferase activity was measured using Nano-glo Luciferase kit (Promega) and relative luciferase activity (Firefly/Nano-Luc) was used to calculate EC50 values. As a positive control, cells were incubated with TCDD. (EC50 Values are grouped as A, B, C and D, whereby A: EC50<0.1 μM; B: 0.1<EC50<1.0 μM; C: 1.0<EC50<10 μM; D: EC50>10 μM)

[3] abbreviates: cells treated with kynurenine 50 μM (*).
Setting [4] is: read-out: Assay 3: AhR-Luc Human Agonism (EC50).
[5] abbreviates: read-out: Assay 3: AhR-Luc Human Agonism (EC50, nM), class in brackets.
Where [6] appears, read: cells treated with kynurenine 200 μM (no *).

Structures can show the parent of a compound that is named as a salt. Where two headings read alike, the source gives them in different places.

In the case of `Cn1cc(-c2nc(-c3ccc(C(F)(F)F)cc3)cc3c(=O)n(C4CCCC(O)C4)cnc23)cn1` (stereo not drawn) [Example 1, 3-(3-hydroxycyclohexyl)-8-(1-methyl-1H-pyrazol-4-yl)-6-(4-(trifluoromethyl)phenyl)pyrido[3,4-d]pyrimidin-4(3H)-one], the IC50 on AhR [1] (setting [3]) was < 10 nM. The EC50 is > 30000 nM on AhR [2] (setting [4]) and > 10000 nM on AhR [2] (setting [5]).

For the compound `CC(CO)n1cnc2c(-c3cnn(C)c3)nc(-c3cnn(C)c3)cc2c1=O` (stereo not drawn) [Example 3, 3-(1-hydroxypropan-2-yl)-6,8-bis(1-methyl-1H-pyrazol-4-yl)pyrido[3,4-d]pyrimidin-4(3H)-one], the IC50 on AhR [1] (setting [3]) is > 1000 nM. In addition, the EC50 is > 30000 nM at AhR [2] (setting [4]) and > 10000 nM on AhR [2] (setting [5]).

On to `Cn1cc(-c2nc(-c3ccc(C(F)(F)F)cc3)cc3c(=O)n([C@H]4CC[C@H](O)CC4)cnc23)cn1` [Example 8, 3-((1r,4r)-4-hydroxycyclohexyl)-8-(1-methyl-1H-pyrazol-4-yl)-6-(4-(trifluoromethyl)phenyl)pyrido[3,4-d]pyrimidin-4(3H)-one], for which the IC50 at AhR [1] (setting [3]) is < 10 nM. Besides, the EC50 is > 30000 nM at AhR [2] (setting [4]) and > 10000 nM at AhR [2] (setting [5]).

As for `Cn1cc(-c2nc(-c3ccc(Cl)cc3)cc3c(=O)n([C@H]4CC[C@H](O)CC4)cnc23)cn1` [Example 10, 6-(4-chlorophenyl)-3-((1r,4r)-4-hydroxycyclohexyl)-8-(1-methyl-1H-pyrazol-4-yl)pyrido[3,4-d]pyrimidin-4(3H)-one], the IC50 at AhR [1] (setting [3]) is < 10 nM. Moreover, the EC50 is > 30000 nM on AhR [2] (setting [4]) and > 10000 nM on AhR [2] (setting [5]).

As for `CC(O)Cn1cnc2c(-c3cnn(C)c3)nc(-c3ccc(C(F)(F)F)nc3)cc2c1=O` (stereo not drawn) [Example 14, 3-(2-hydroxypropyl)-8-(1-methyl-1H-pyrazol-4-yl)-6-(6-(trifluoromethyl)pyridin-3-yl)pyrido[3,4-d]pyrimidin-4(3H)-one], the IC50 at AhR [1] (setting [3]) is < 10 nM. The EC50 is > 30000 nM on AhR [2] (setting [4]) and > 10000 nM at AhR [2] (setting [5]).

`O=c1c2cc(-c3ccc(N4CCOCC4)cc3)nc(-c3cccnc3)c2ncn1[C@@H]1CC[C@H](O)C1` [Example 73, 3-((1R,3S)-3-hydroxycyclopentyl)-6-(4-morpholinophenyl)-8-(pyridin-3-yl)pyrido[3,4-d]pyrimidin-4(3H)-one]: at AhR [1] (setting [6]), the IC50 is < 10 nM.

`CC(CO)n1cnc2c(-c3cccnc3)nc(-c3ccc(-c4ccc(Cl)cc4)cc3)cc2c1=O` (stereo not drawn) [Example 74, 6-(4′-chloro-[1,1′-biphenyl]-4-yl)-3-(1-hydroxypropan-2-yl)-8-(pyridin-3-yl)pyrido[3,4-d]pyrimidin-4(3H)-one]: the IC50 on AhR [1] (setting [6]) is < 10 nM.

As to `O=c1c2cc(-c3ccc(N4CCOCC4)cc3)nc(-c3cccnc3)c2ncn1C1CCS(=O)(=O)CC1` [Example 78, 3-(1,1-dioxidotetrahydro-2H-thiopyran-4-yl)-6-(4-morpholinophenyl)-8-(pyridin-3-yl)pyrido[3,4-d]pyrimidin-4(3H)-one], the IC50 on AhR [1] (setting [6]) is < 10 nM.

Consider `CS(=O)(=O)CCn1cnc2c(-c3cccnc3)nc(-c3ccc(N4CCOCC4)cc3)cc2c1=O` [Example 79, 3-(2-(methylsulfonyl)ethyl)-6-(4-morpholinophenyl)-8-(pyridin-3-yl)pyrido[3,4-d]pyrimidin-4(3H)-one], for which the half-inhibitory concentration (IC50) at AhR [1] (setting [6]) is < 10 nM.

Take `O=c1c2cc(-c3ccc(N4CCOCC4)cc3)nc(-c3cccnc3)c2ncn1C(CO)CO` [Example 80, 3-(1,3-dihydroxypropan-2-yl)-6-(4-morpholinophenyl)-8-(pyridin-3-yl)pyrido[3,4-d]pyrimidin-4(3H)-one]: at AhR [1] (setting [6]), the IC50 was < 10 nM.

In the case of `O=c1c2cc(-c3ccc(C(F)(F)F)cc3)nc(-c3cccnc3)c2ncn1C[C@@H](O)CO` [Example 81, (R)-3-(2,3-dihydroxypropyl)-8-(pyridin-3-yl)-6-(4-(trifluoromethyl)phenyl)pyrido[3,4-d]pyrimidin-4(3H)-one], at AhR [1] (setting [6]), the IC50 is < 10 nM.

With `CC(C(=O)O)n1cnc2c(-c3cccnc3)nc(-c3ccc(Cl)cc3)cc2c1=O` (stereo not drawn) [Example 83, 2-(6-(4-chlorophenyl)-4-oxo-8-(pyridin-3-yl)pyrido[3,4-d]pyrimidin-3(4H)-yl)propanoic acid, 2,2,2-trifluoroacetic acid salt], on AhR [1] (setting [6]), the IC50 fell in the range of 100 to 1000 nM.

As to `CC(C(=O)O)n1cnc2c(-c3cccnc3)nc(-c3ccc(C(F)(F)F)cc3)cc2c1=O` (stereo not drawn) [Example 84, 2-(4-oxo-8-(pyridin-3-yl)-6-(4-(trifluoromethyl)phenyl)pyrido[3,4-d]pyrimidin-3(4H)-yl)propanoic acid, 2,2,2-trifluoroacetic acid salt], the IC50 on AhR [1] (setting [6]) lay in the range of 100 to 1000 nM.

Take `CC(CN)n1cnc2c(-c3cccnc3)nc(-c3ccc(C(F)(F)F)cc3)cc2c1=O` (stereo not drawn) [Example 85, 3-(1-aminopropan-2-yl)-8-(pyridin-3-yl)-6-(4-(trifluoromethyl)phenyl)pyrido[3,4-d]pyrimidin-4(3H)-one]: the IC50 at AhR [1] (setting [6]) is 10 to 100 nM.

Take `CC(=O)NCC(C)n1cnc2c(-c3cccnc3)nc(-c3ccc(C(F)(F)F)cc3)cc2c1=O` (stereo not drawn) [Example 86, N-(2-(4-oxo-8-(pyridin-3-yl)-6-(4-(trifluoromethyl)phenyl)pyrido[3,4-d]pyrimidin-3(4H)-yl)propyl)acetamide]: the IC50 on AhR [1] (setting [6]) is 10 to 100 nM.

Take `CC(CN)n1cnc2c(-c3cccnc3)nc(-c3ccc(Cl)cc3)cc2c1=O` (stereo not drawn) [Example 87, 3-(1-aminopropan-2-yl)-6-(4-chlorophenyl)-8-(pyridin-3-yl)pyrido[3,4-d]pyrimidin-4(3H)-one]: the IC50 at AhR [1] (setting [6]) was < 10 nM.

Turning to `CC(CN)n1cnc2c(-c3cccnc3)nc(-c3ccc(N4CCOCC4)cc3)cc2c1=O` (stereo not drawn) [Example 90, 3-(1-aminopropan-2-yl)-6-(4-morpholinophenyl)-8-(pyridin-3-yl)pyrido[3,4-d]pyrimidin-4(3H)-one], on AhR [1] (setting [6]), the IC50 lay within 100 to 1000 nM.

In the case of `CC(CNS(C)(=O)=O)n1cnc2c(-c3cccnc3)nc(-c3ccc(N4CCOCC4)cc3)cc2c1=O` (stereo not drawn) [Example 91, N-(2-(6-(4-morpholinophenyl)-4-oxo-8-(pyridin-3-yl)pyrido[3,4-d]pyrimidin-3(4H)-yl)propyl)methanesulfonamide], at AhR [1] (setting [6]), the IC50 is < 10 nM.

Regarding `CC(=O)NCC(C)n1cnc2c(-c3cccnc3)nc(-c3ccc(N4CCOCC4)cc3)cc2c1=O` (stereo not drawn) [Example 92, N-(2-(6-(4-morpholinophenyl)-4-oxo-8-(pyridin-3-yl)pyrido[3,4-d]pyrimidin-3(4H)-yl)propyl)acetamide], the IC50 at AhR [1] (setting [6]) lay within 10 to 100 nM.

With `O=c1c2cc(-c3ccc(C(F)(F)F)cc3)nc(-c3cccnc3)c2ncn1C1CCNCC1` [Example 93, 3-(piperidin-4-yl)-8-(pyridin-3-yl)-6-(4-(trifluoromethyl)phenyl)pyrido[3,4-d]pyrimidin-4(3H)-one], the IC50 at AhR [1] (setting [6]) was < 10 nM.

One may read the IC50 as the concentration needed to halve the response being measured. A word on the EC50: it is the concentration at which the effect is half-maximal.
